Test results as given in US11478469B2, “Combination product of BCL-2 inhibitor and MDM2 inhibitor and use thereof in the prevention and/or treatment of diseases” (ASCENTAGE PHARMA (SUZHOU) CO., LTD., priority 2018, dated 2022).

Assays:
[1] = tested on: MOLM-13-Luc systemic human AML; assay: Systemic MOLM-13-Luc human AML xenograft model in NOD SCID mice; type: in vivo, mouse; settings: compound 6 100 mg/kg qd×21 d; APG-115 100 mg/kg daily for seven days
Experimental: (1) The combined benefits of APG-115 and compound 6 for the therapy of AML was further evaluated in a difficult-to-treat disseminated MOLM-13-Luc systemic human AML model.
The MOLM-13-Luc tumor cells were maintained in vitro as suspension culture in RPMI 1640 medium supplemented with 10% heat inactivated fetal bovine serum (Gibco product), 100 U/mL penicillin and 100 μg/mL streptomycin, at 37° C. in an atmosphere of 5% CO2 in air. The tumor cells were routinely subcultured twice weekly. The cells growing in an exponential growth phase were harvested and counted for tumor inoculation.
The female NOD SCID mice were pre-treated with 2 times of 150 mg/kg cyclophosphamide, QD, at 24 hours before cell inoculation. Each mouse was inoculated with MOLM-13-Luc tumor cells (2×10^6/mouse) in 0.2 mL of PBS via tail vein for tumor development.
Animals were selected for grouping on day 3 after tumor implantation when the average bioluminescence measurement reached 3.18×107 photons/sec. A high dose pulse regimen (i.e. 100 mg/kg daily for seven days) was applied for APG-115 in this study.

[2] = tested on: human MV-4-11 AML xenograft; assay: MV-4-11 AML xenograft in Balb/c nude mice; type: in vivo, mouse; settings: for Response rate @D 22: mPD (progressive disease) / Best response rate: mPD (progressive disease): compound 6 100 mg/kg and/or APG-115 100 mg/kg, mice per group; for Response rate @D 22: mPD (progressive disease) / RTV @ D 22 / T/C (%) @ D 22: day 22; for RTV @ D 22 / T/C (%) @ D 22: compound 6 100 mg/kg p.o. qd×22 d and/or APG-115 100 mg/kg orally daily d1-7 and d16-22
Source text: A subcutaneous xenograft tumor model of human tumor immunodeficient mice was established by cell inoculation (see: Gould S E et al. Translational value of mouse models in oncology drug development. Nature medicine. 2015 21, 431-439; and, Souers A J et al. ABT-199, a potent and selective BCL-2 inhibitor, achieves antitumor activity while sparing platelets. Nature medicine. 2012 19.202-208): tumor cells in logarithmic growth phase were collected, counted and resuspended in 1×PBS, and the cell suspension concentration was adjusted to 2.5-5×10^7/mL. Using a 1 mL syringe ([…]), the tumor cells were inoculated subcutaneously in the right side of immunodeficient mice, 5-10×106/0.2 mL/mouse (experimental animals were purchased from Beijing Vital River Laboratory Animal Technology Co., Ltd. SCXK (Beijing) 2016-0006). All animal experiments were strictly in accordance with the laboratory animal use and management practices of GenePharma Co., Ltd. and Ascentage Pharma Group Co., Ltd. The calculation of relevant parameters referred to the Chinese CFDA “Guidelines for Non-Clinical Research Techniques of Cytotoxic Antitumor Drugs”.
Animal body weight and tumor size were measured twice a week during the experiment. The conditions and death of the animals were observed every day. Routine monitoring included the effects of tumor growth and treatment on normal animal behaviors, including activity, feeding and drinking situations, weight gain or loss, eyes, coat and other abnormalities in the experimental animals. The deaths and clinical symptoms observed during the experiment were recorded in the raw data. The entire operations of administration, measurement of mouse body weight and tumor volume were performed in a clean bench. Plasma and tumor tissues were collected, weighed and photographed after the end of the last administration according to the experimental protocol. Plasma and tumor samples were frozen and stored at −80° C.
Tumor volume (TV) was calculated as: TV=a×b2/2, in which a and b represented the length and width of the tumor as measured, respectively. The relative tumor volume (RTV) was calculated as: RTV=Vt/V1, in which V1 was the tumor volume at the time of grouping and administration, and Vt was the tumor volume measured on a day after administration. The evaluation index of anti-tumor activity was the relative tumor proliferation rate T/C (%), which was calculated as: relative tumor proliferation rate T/C (%)=(TRTV/CRTV)×100%, in which TRTV was the RTV of the treatment group, CRTV was the RTV of the vehicle control group; tumor remission rate (%) was calculated as: (the number of SD (stable disease), PR (tumor partial regression) and CR (tumor complete regression) in the tumor-bearing mice after treatment)/the total number of mice in the group×100%. Change of body weight %=(measured body weight−body weight at the time of grouping)/body weight at the time of grouping×100%.
The synergistic analysis was performed by the following formula (Gould S E et al. Translational value of mouse models in oncology drug development. Nature medicine. 2015 21, 431-439): synergy factor=((A/C)×(B/C))/(AB/C); A=RTV value of the group administered with A only; B═RTV value of the group administered with B only; C=RTV value of the vehicle control group; AB=RTV value of the group administered with A and B in combination (Clarke R. Issues in experimental design and endpoint analysis in the study of experimental cytotoxic agents in vivo in breast cancer and other models [J]. Breast Cancer Research & Treatment, 1997, 46(2-3): 255-278).
(1) The experimental method was as described in Section (2) of Example 1. Compound 6 is a selective BCL-2 inhibitor developed by the Ascentage Pharma Group. The agent is currently under clinical development for cancer therapy both in China and in the US. Enhanced anti-proliferation activity of APG-115 in combination with compound 6 has been observed in cell-based assay in AML cell lines in vitro. […]

Row | Compound | anti-leukemia activity / bioluminescence signals in words [1] | Response rate @D 22: mPD (progressive disease) [2] | Best response rate: mPD (progressive disease) [2] | RTV @ D 22 [2] | T/C (%) @ D 22 [2] [%]
1 | CCN1[C@@H](C(=O)NC23CCC(C(=O)O)(CC2)CC3)[C@H](c2cccc(Cl)c2F)[C@]2(C(=O)Nc3cc(Cl)ccc32)C12CCCCC2 [APG-115] | remarkedly decreased bioluminescence signals | 6/6 mPD | 6/6 mPD | 9.2 ± 2.3 | 67.1
2 | O=C(NS(=O)(=O)c1ccc(NC[C@H]2COCCO2)c([N+](=O)[O-])c1)c1ccc(N2CCN(CC3=C(c4ccc(Cl)cc4)CC4(CCC4)CC3)CC2)cc1Oc1cnc2[nH]ccc2c1 [Compound 6, (S)-N-((4-(((1,4-dioxan-2-yl)methyl)amino)-3-nitrophe-nyl)sulfonyl)-2-((1H-pyrrolo[2,3-b]pyridin-5-yl)oxy)-4-(4-((6-(4-chlorophenyl)spiro[3.5]non-6-en-7-yl)meth-yl)piperazin-1-yl)benzamide] | limited anti-leukemia activity | 6/6 mPD | 6/6 mPD | 7.5 ± 0.9 | 55.1
